Patent US20250163104A1, “MACROCYCLIC IMMUNOMODULATORS” (priority 2021, published 2025)
Where a SMILES comes first, the peptide text is derived from it. Bridges are numbered along the chain shown (N, C = ends). [ ]: non-standard residue; d: D form. The star is where a group is joined. Phe(4-CONH2) = NC(=O)c1ccc(C[C@H](N)C(=O)O)cc1; Asp(3,3-Me2) = CC(C)(C(=O)O)[C@H](N)C(=O)O; Bip = N[C@@H](Cc1ccc(-c2ccccc2)cc1)C(=O)O; Phe(3-Me) = Cc1cccc(C[C@H](N)C(=O)O)c1; Val(3-OH) = CC(C)(O)[C@H](N)C(=O)O; Hyp = O=C(O)[C@@H]1C[C@@H](O)CN1; 4Pal = N[C@@H](Cc1ccncc1)C(=O)O; 2Thi = N[C@@H](Cc1cccs1)C(=O)O; Cha = N[C@@H](CC1CCCCC1)C(=O)O; Carboxymethyl = O=C(O)C*; Orn = NCCC[C@H](N)C(=O)O; Dab = NCC[C@H](N)C(=O)O; Dap = NC[C@H](N)C(=O)O; Ac3c = NC1(C(=O)O)CC1; Piv = CC(C)(C)C(=O)*

target: T1, human PD-1 / PD-L1-Ig binding on Jurkat cell line over-expressing human PD-1 (Jurkat-PD-1) (Homo sapiens, UniProt Q15116); experiment: Jurkat-PD-1 Cell Binding High-Content Screening Assay (CBA); assay type: cell-based; conditions: Jurkat-PD-1 cells, PE-labeled PD-L1-Ig 20 nM final; read-out: Jurkat HPD1_PDL1 IC50
T1 construct: expressed in transfected cells; host or cells: Jurkat
T1 sequence (Q15116 25-288): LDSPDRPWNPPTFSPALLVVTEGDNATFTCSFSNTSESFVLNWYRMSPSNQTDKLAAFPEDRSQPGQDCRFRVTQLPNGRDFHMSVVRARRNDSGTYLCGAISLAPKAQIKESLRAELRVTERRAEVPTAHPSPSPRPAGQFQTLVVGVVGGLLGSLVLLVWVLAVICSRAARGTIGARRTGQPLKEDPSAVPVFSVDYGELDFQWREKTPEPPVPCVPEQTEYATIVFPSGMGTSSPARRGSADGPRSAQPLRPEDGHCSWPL
In short: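 Jurkat cells over-expressing human PD-1, in DMEM/10% FCS, pre-incubated with compound 2 h at 37° C. PE-labeled human PD-L1-Ig (20 nM final) added for 1 h; cells fixed in paraformaldehyde with Hoechst 33342 nuclear stain, washed, and bound fluorescence quantified by high-content imaging.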

SMILES | IC50
Cc1cccc(C[C@@H]2NC(=O)[C@H](CC(=O)O)NC(=O)[C@H](Cc3ccc(OCC(=O)O)cc3)NC(=O)[C@@H]3C[C@@H](O)CN3C(=O)CSC[C@@H](C(=O)N[C@@H](CCN)C(N)=O)NC(=O)[C@H](CO)NC(=O)[C@H](C(C)(C)O)NC(=O)[C@H](CC3CCCCC3)NC(=O)[C@H](CCN)NC(=O)[C@@H](CC(C)C)NC(=O)[C@H](CCCN)NC(=O)[C@H](Cc3ccc(OCC(=O)O)cc3)NC(=O)[C@H](Cc3ccc(-c4ccccc4)cc3)NC(=O)[C@H](Cc3ccc(OCC(=O)O)cc3)NC2=O)c1 [Compound 2059] ({CH2CO}-[Hyp]Y(Carboxymethyl)D[Phe(3-Me)]Y(Carboxymethyl)[Bip]Y(Carboxymethyl)[Orn][dL][Dab][Cha][Val(3-OH)]SC[Dab]-NH2; thioether N-14) | 0.356 µM
Cc1cccc(C[C@@H]2NC(=O)[C@H](CC(=O)O)NC(=O)[C@H](Cc3ccc(OCC(=O)O)cc3)NC(=O)[C@H](Cc3ccncc3)NC(=O)CSC[C@@H](C(=O)N[C@@H](CCNC(=O)C(C)(C)C)C(N)=O)NC(=O)[C@H]([C@@H](C)O)NC(=O)[C@H](C(C)C)NC(=O)[C@H](CC3CCCCC3)NC(=O)[C@H](CCN)NC(=O)[C@@H](CC(C)C)NC(=O)[C@H](CCN)NC(=O)[C@H](Cc3ccc(OCC(=O)O)cc3)NC(=O)[C@H](Cc3ccc(-c4ccccc4)cc3)NC(=O)[C@H](Cc3ccc(OCC(=O)O)cc3)NC2=O)c1 [Compound 2060] ({CH2CO}-[4Pal]Y(Carboxymethyl)D[Phe(3-Me)]Y(Carboxymethyl)[Bip]Y(Carboxymethyl)[Dab][dL][Dab][Cha]VTC[Dab](Piv)-NH2; thioether N-14) | 0.0193 µM
Cc1cccc(C[C@@H]2NC(=O)[C@H](CC(=O)O)NC(=O)[C@H](Cc3ccc(OCC(=O)O)cc3)NC(=O)[C@H](CN)NC(=O)CSC[C@@H](C(=O)N[C@@H](CCNC(=O)C(C)(C)C)C(N)=O)NC(=O)[C@H]([C@@H](C)O)NC(=O)[C@H](C(C)C)NC(=O)[C@H](CC3CCCCC3)NC(=O)[C@H](CCN)NC(=O)[C@@H](CC(C)C)NC(=O)[C@H](CCN)NC(=O)[C@H](Cc3ccc(OCC(=O)O)cc3)NC(=O)[C@H](Cc3ccc(-c4ccccc4)cc3)NC(=O)[C@H](Cc3ccc(OCC(=O)O)cc3)NC2=O)c1 [Compound 2061] ({CH2CO}-[Dap]Y(Carboxymethyl)D[Phe(3-Me)]Y(Carboxymethyl)[Bip]Y(Carboxymethyl)[Dab][dL][Dab][Cha]VTC[Dab](Piv)-NH2; thioether N-14) | 0.0236 µM
Cc1cccc(C[C@@H]2NC(=O)[C@H](CC(=O)O)NC(=O)[C@H](Cc3ccc(OCC(=O)O)cc3)NC(=O)[C@H](Cc3ccncc3)NC(=O)CSC[C@@H](C(=O)N[C@@H](CCN)C(N)=O)NC(=O)[C@H]([C@@H](C)O)NC(=O)[C@H](C(C)C)NC(=O)[C@H](CC3CCCCC3)NC(=O)[C@H](CCNC(=O)C(C)(C)C)NC(=O)[C@@H](CC(C)C)NC(=O)[C@H](CCN)NC(=O)[C@H](Cc3ccc(OCC(=O)O)cc3)NC(=O)[C@H](Cc3ccc(-c4ccccc4)cc3)NC(=O)[C@H](Cc3ccc(OCC(=O)O)cc3)NC2=O)c1 [Compound 2062] ({CH2CO}-[4Pal]Y(Carboxymethyl)D[Phe(3-Me)]Y(Carboxymethyl)[Bip]Y(Carboxymethyl)[Dab][dL][Dab](Piv)[Cha]VTC[Dab]-NH2; thioether N-14) | 0.0128 µM
Cc1cccc(C[C@@H]2NC(=O)[C@H](CC(=O)O)NC(=O)[C@H](Cc3ccc(OCC(=O)O)cc3)NC(=O)[C@H](CN)NC(=O)CSC[C@@H](C(=O)N[C@@H](CCN)C(N)=O)NC(=O)[C@H]([C@@H](C)O)NC(=O)[C@H](C(C)C)NC(=O)[C@H](CC3CCCCC3)NC(=O)[C@H](CCNC(=O)C(C)(C)C)NC(=O)[C@@H](CC(C)C)NC(=O)[C@H](CCN)NC(=O)[C@H](Cc3ccc(OCC(=O)O)cc3)NC(=O)[C@H](Cc3ccc(-c4ccccc4)cc3)NC(=O)[C@H](Cc3ccc(OCC(=O)O)cc3)NC2=O)c1 [Compound 2063] ({CH2CO}-[Dap]Y(Carboxymethyl)D[Phe(3-Me)]Y(Carboxymethyl)[Bip]Y(Carboxymethyl)[Dab][dL][Dab](Piv)[Cha]VTC[Dab]-NH2; thioether N-14) | 0.0162 µM
Cc1cccc(C[C@@H]2NC(=O)[C@H](CC(=O)O)NC(=O)[C@H](Cc3ccc(OCC(=O)O)cc3)NC(=O)[C@H](Cc3ccncc3)NC(=O)CSC[C@@H](C(=O)NC3(C(N)=O)CC3)NC(=O)[C@H](CO)NC(=O)[C@H](C(C)C)NC(=O)[C@H](CC3CCCCC3)NC(=O)[C@H](CCN)NC(=O)[C@@H](CC(C)C)NC(=O)[C@H](CCCN)NC(=O)[C@H](Cc3ccc(OCC(=O)O)cc3)NC(=O)[C@H](Cc3ccc(-c4ccccc4)cc3)NC(=O)[C@H](Cc3ccc(OCC(=O)O)cc3)NC2=O)c1 [Compound 2064] ({CH2CO}-[4Pal]Y(Carboxymethyl)D[Phe(3-Me)]Y(Carboxymethyl)[Bip]Y(Carboxymethyl)[Orn][dL][Dab][Cha]VSC[Ac3c]-NH2; thioether N-14) | 0.0117 µM
Cc1cccc(C[C@@H]2NC(=O)[C@H](CC(=O)O)NC(=O)[C@H](Cc3ccc(OCC(=O)O)cc3)NC(=O)[C@H]([C@@H](C)O)NC(=O)CSC[C@@H](C(=O)NC3(C(N)=O)CC3)NC(=O)[C@H](CO)NC(=O)[C@H](C(C)C)NC(=O)[C@H](CC3CCCCC3)NC(=O)[C@H](CCN)NC(=O)[C@@H](CC(C)C)NC(=O)[C@H](CCCN)NC(=O)[C@H](Cc3ccc(OCC(=O)O)cc3)NC(=O)[C@H](Cc3ccc(-c4ccccc4)cc3)NC(=O)[C@H](Cc3ccc(OCC(=O)O)cc3)NC2=O)c1 [Compound 2065] ({CH2CO}-TY(Carboxymethyl)D[Phe(3-Me)]Y(Carboxymethyl)[Bip]Y(Carboxymethyl)[Orn][dL][Dab][Cha]VSC[Ac3c]-NH2; thioether N-14) | 0.0195 µM
Cc1cccc(C[C@@H]2NC(=O)[C@H](CC(=O)O)NC(=O)[C@H](Cc3ccc(OCC(=O)O)cc3)NC(=O)[C@H](Cc3ccncc3)NC(=O)CSC[C@@H](C(=O)N[C@@H](CCN)C(N)=O)NC(=O)[C@H]([C@@H](C)O)NC(=O)[C@H](C(C)(C)O)NC(=O)[C@H](CC3CCCCC3)NC(=O)[C@H](CCN)NC(=O)[C@@H](CC(C)C)NC(=O)[C@H](CCCN)NC(=O)[C@H](Cc3ccc(OCC(=O)O)cc3)NC(=O)[C@H](Cc3ccc(-c4ccccc4)cc3)NC(=O)[C@H](Cc3ccc(OCC(=O)O)cc3)NC2=O)c1 [Compound 2066] ({CH2CO}-[4Pal]Y(Carboxymethyl)D[Phe(3-Me)]Y(Carboxymethyl)[Bip]Y(Carboxymethyl)[Orn][dL][Dab][Cha][Val(3-OH)]TC[Dab]-NH2; thioether N-14) | 0.0061 µM
Cc1cccc(C[C@@H]2NC(=O)[C@H](CC(=O)O)NC(=O)[C@H](Cc3ccc(OCC(=O)O)cc3)NC(=O)[C@H](Cc3cccs3)NC(=O)CSC[C@@H](C(=O)N[C@@H](CCN)C(N)=O)NC(=O)[C@H]([C@@H](C)O)NC(=O)[C@H](C(C)(C)O)NC(=O)[C@H](CC3CCCCC3)NC(=O)[C@H](CCN)NC(=O)[C@@H](CC(C)C)NC(=O)[C@H](CCCN)NC(=O)[C@H](Cc3ccc(OCC(=O)O)cc3)NC(=O)[C@H](Cc3ccc(-c4ccccc4)cc3)NC(=O)[C@H](Cc3ccc(OCC(=O)O)cc3)NC2=O)c1 [Compound 2067] ({CH2CO}-[2Thi]Y(Carboxymethyl)D[Phe(3-Me)]Y(Carboxymethyl)[Bip]Y(Carboxymethyl)[Orn][dL][Dab][Cha][Val(3-OH)]TC[Dab]-NH2; thioether N-14) | 0.0063 µM
Cc1cccc(C[C@@H]2NC(=O)[C@H](CC(=O)O)NC(=O)[C@H](Cc3ccc(OCC(=O)O)cc3)NC(=O)[C@H](Cc3ccncc3)NC(=O)CSC[C@@H](C(=O)N[C@@H](CCN)C(N)=O)NC(=O)[C@H](CCC(N)=O)NC(=O)[C@H](C(C)(C)O)NC(=O)[C@H](CC3CCCCC3)NC(=O)[C@H](CCN)NC(=O)[C@@H](CC(C)C)NC(=O)[C@H](CCCN)NC(=O)[C@H](Cc3ccc(OCC(=O)O)cc3)NC(=O)[C@H](Cc3ccc(-c4ccccc4)cc3)NC(=O)[C@H](Cc3ccc(OCC(=O)O)cc3)NC2=O)c1 [Compound 2068] ({CH2CO}-[4Pal]Y(Carboxymethyl)D[Phe(3-Me)]Y(Carboxymethyl)[Bip]Y(Carboxymethyl)[Orn][dL][Dab][Cha][Val(3-OH)]QC[Dab]-NH2; thioether N-14) | 0.0082 µM
Cc1cccc(C[C@@H]2NC(=O)[C@H](CC(=O)O)NC(=O)[C@H](Cc3ccc(OCC(=O)O)cc3)NC(=O)[C@H](Cc3ccc(C(N)=O)cc3)NC(=O)CSC[C@@H](C(=O)N[C@@H](CCN)C(N)=O)NC(=O)[C@H](CCC(N)=O)NC(=O)[C@H](C(C)(C)O)NC(=O)[C@H](CC3CCCCC3)NC(=O)[C@H](CCN)NC(=O)[C@@H](CC(C)C)NC(=O)[C@H](CCCN)NC(=O)[C@H](Cc3ccc(OCC(=O)O)cc3)NC(=O)[C@H](Cc3ccc(-c4ccccc4)cc3)NC(=O)[C@H](Cc3ccc(OCC(=O)O)cc3)NC2=O)c1 [Compound 2069] ({CH2CO}-[Phe(4-CONH2)]Y(Carboxymethyl)D[Phe(3-Me)]Y(Carboxymethyl)[Bip]Y(Carboxymethyl)[Orn][dL][Dab][Cha][Val(3-OH)]QC[Dab]-NH2; thioether N-14) | 0.0072 µM
Cc1cccc(C[C@@H]2NC(=O)[C@H](CC(=O)O)NC(=O)[C@H](Cc3ccc(OCC(=O)O)cc3)NC(=O)[C@H](CCN)NC(=O)CSC[C@@H](C(=O)N[C@@H](CCN)C(N)=O)NC(=O)[C@H](CO)NC(=O)[C@H](C(C)(C)C(=O)O)NC(=O)[C@H](CC3CCCCC3)NC(=O)[C@H](CCN)NC(=O)[C@@H](CC(C)C)NC(=O)[C@H](CCCN)NC(=O)[C@H](Cc3ccc(OCC(=O)O)cc3)NC(=O)[C@H](Cc3ccc(-c4ccccc4)cc3)NC(=O)[C@H](Cc3ccc(OCC(=O)O)cc3)NC2=O)c1 [Compound 2070] ({CH2CO}-[Dab]Y(Carboxymethyl)D[Phe(3-Me)]Y(Carboxymethyl)[Bip]Y(Carboxymethyl)[Orn][dL][Dab][Cha][Asp(3,3-Me2)]SC[Dab]-NH2; thioether N-14) | 0.017 µM
